Three molecules from patent US12703729B2, “GIP agonist compounds and methods” (Zealand Pharma A/S, priority 2014, dated 2026) can be followed below.

Starred links: 1 amine or outer side, 2 acyl side, 3 side chain; linkers in the order of their positions; H or OH if unused. Non-standard residues stand in square brackets, D forms with d. Residues, ends and D or L forms follow the SMILES beside them. Groups on a side chain read outwards from the residue. *: point of attachment. C20 diacid = O=C(O)CCCCCCCCCCCCCCCCCCC(=O)*; γGlu = O=C(O)[C@H](CCC(=O)[*:2])N[*:1]; AEEA = NCCOCCOCC(=O)O; Aib = CC(C)(N)C(=O)O

For series [1] the following is noted: male, C57BL/6J, mouse, in vivo.
The nature of series [2]: in vivo. The following applies: male, C57BL/6J, mouse; for bioavailability: Bioavailability s.c.; for half-life: 200 nmol/kg.
The target of series [3] is T1, human GIP R (Homo sapiens, UniProt P48546).
T1 sequence (P48546 22-466): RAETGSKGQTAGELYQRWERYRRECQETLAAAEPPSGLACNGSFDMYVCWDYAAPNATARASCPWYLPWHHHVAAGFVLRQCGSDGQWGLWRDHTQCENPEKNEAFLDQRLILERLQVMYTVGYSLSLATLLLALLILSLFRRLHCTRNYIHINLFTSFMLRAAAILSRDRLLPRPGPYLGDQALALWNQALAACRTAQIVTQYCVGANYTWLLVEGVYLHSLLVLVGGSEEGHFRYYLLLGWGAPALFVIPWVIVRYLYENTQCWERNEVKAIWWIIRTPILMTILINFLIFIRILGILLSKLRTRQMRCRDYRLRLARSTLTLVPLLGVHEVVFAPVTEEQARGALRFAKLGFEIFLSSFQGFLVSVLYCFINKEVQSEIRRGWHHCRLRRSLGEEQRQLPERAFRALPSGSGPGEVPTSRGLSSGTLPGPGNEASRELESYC
Description: cell-based.

Series [4] concerns the target T2, human GIP receptor (GIP R) (Homo sapiens, UniProt P48546).
T2 sequence (P48546 22-466): T1 sequence (P48546 22-466)
Description: Activity assay at human GIP receptor, cAMP induction (AlphaScreen), Example 3.

In series [5] the target is human GLP-1 receptor (GLP-1R) (Homo sapiens, UniProt P43220). Description: Activity assay at human GLP-1 receptor, cAMP induction (AlphaScreen), Example 3. (Alpha assays give light when donor and acceptor beads are brought close together.)
The mark [6] stands for this setting: iv, Terminal elimination half-life T½ i.v.
The mark [7] stands for this setting: sc, Terminal elimination half-life T½ s.c.

Sequence of human GLP-1 receptor (GLP-1R) (P43220 24-463): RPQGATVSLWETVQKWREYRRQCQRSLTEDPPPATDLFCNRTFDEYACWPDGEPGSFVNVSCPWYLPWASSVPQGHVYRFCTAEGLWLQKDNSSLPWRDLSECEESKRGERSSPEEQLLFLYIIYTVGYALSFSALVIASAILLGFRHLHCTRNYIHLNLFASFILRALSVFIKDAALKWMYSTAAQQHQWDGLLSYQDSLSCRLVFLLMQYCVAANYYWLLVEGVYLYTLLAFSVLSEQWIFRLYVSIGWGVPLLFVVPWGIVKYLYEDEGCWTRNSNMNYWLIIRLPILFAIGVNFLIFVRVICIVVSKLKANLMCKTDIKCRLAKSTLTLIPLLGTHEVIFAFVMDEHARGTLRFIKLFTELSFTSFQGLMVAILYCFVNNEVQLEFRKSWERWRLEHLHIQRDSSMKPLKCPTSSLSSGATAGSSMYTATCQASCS

In general, bioavailability refers to the share of a dose that reaches the circulation, judged against a reference dose that is usually intravenous. High values mean good availability, low ones poor availability. A word on the half-life: it is the time needed for the level to fall by half in the phase considered. A low value points to fast loss. As usually defined, the Tmax is the time at which the peak concentration occurs. Broadly, the EC50 is the concentration that produces a half-maximal response. The low end stands for an effect from little substance, the high end for a need for much substance. For `CC[C@H](C)[C@H](NC(=O)[C@H](CCCCN)NC(=O)[C@H](CC(=O)O)NC(=O)[C@H](CC(C)C)NC(=O)[C@H](CCC(=O)O)NC(=O)[C@@H](NC(=O)[C@H](CO)NC(=O)[C@H](Cc1ccc(O)cc1)NC(=O)[C@H](CC(=O)O)NC(=O)[C@H](CO)NC(=O)[C@@H](NC(=O)[C@H](Cc1ccccc1)NC(=O)[C@@H](NC(=O)CNC(=O)[C@H](CCC(=O)O)NC(=O)C(C)(C)NC(=O)[C@@H](N)Cc1ccc(O)cc1)[C@@H](C)O)[C@@H](C)CC)[C@@H](C)CC)C(=O)N[C@@H](C)C(=O)N[C@@H](C)C(=O)N[C@@H](CCC(N)=O)C(=O)N[C@@H](CC(=O)O)C(=O)N[C@@H](Cc1ccccc1)C(=O)N[C@H](C(=O)N[C@@H](CC(N)=O)C(=O)N[C@@H](Cc1c[nH]c2ccccc12)C(=O)N[C@@H](CC(C)C)C(=O)N[C@@H](CC(C)C)C(=O)N[C@@H](C)C(=O)NCC(=O)N1CCC[C@H]1C(=O)N[C@@H](CO)C(=O)N[C@@H](CO)C(=O)NCC(=O)N[C@@H](C)C(=O)N1CCC[C@H]1C(=O)N1CCC[C@H]1C(=O)N1CCC[C@H]1C(=O)N[C@@H](CO)C(=O)N[C@@H](CCCCNC(=O)COCCOCCNC(=O)COCCOCCNC(=O)CC[C@H](NC(=O)CCCCCCCCCCCCCCCCCCC(=O)O)C(=O)O)C(N)=O)C(C)C` [Compound 16] (H-Y[Aib]EGTFISDYSIELDKIAAQDFVNWLLAGPSSGAPPPSK([AEEA-AEEA-γGlu-C20 diacid])-NH2), the Bioavailability s.c. in series [1] amounted to 88%. Further, the “Terminal elimination half-life T½ i.v.” value in series [1] (iv, 200 nmol/kg) is listed as 19.2 h. Besides, the “Terminal elimination half-life T½ s.c.” value in series [1] (sc, 200 nmol/kg) turned out to be 16.7 h. In series [2], this molecule returned a bioavailability of 81%. Further, the half-life in series [2] (setting [6]) is 23.3 h; in series [2] (setting [7]), 23.6 h. In addition, the time of peak concentration (Tmax) in series [2] (sc) is 8 h. For the same molecule, the EC50 is 0.016 nM in series [3], 0.012 nM in series [4] and over 10 nM in series [5].
For the molecule `CC[C@H](C)[C@H](NC(=O)[C@H](CCCCN)NC(=O)[C@H](CC(=O)O)NC(=O)[C@H](CC(C)C)NC(=O)[C@H](CCC(=O)O)NC(=O)[C@H](CCCCNC(=O)COCCOCCNC(=O)COCCOCCNC(=O)CC[C@H](NC(=O)CCCCCCCCCCCCCCCCCCC(=O)O)C(=O)O)NC(=O)[C@H](CO)NC(=O)[C@H](Cc1ccc(O)cc1)NC(=O)[C@H](CC(=O)O)NC(=O)[C@H](CO)NC(=O)[C@@H](NC(=O)[C@H](Cc1ccccc1)NC(=O)[C@@H](NC(=O)CNC(=O)[C@H](CCC(=O)O)NC(=O)C(C)(C)NC(=O)[C@@H](N)Cc1ccc(O)cc1)[C@@H](C)O)[C@@H](C)CC)C(=O)N[C@@H](C)C(=O)N[C@@H](CCC(N)=O)C(=O)N[C@@H](CCCNC(=N)N)C(=O)N[C@@H](C)C(=O)N[C@@H](Cc1ccccc1)C(=O)N[C@H](C(=O)N[C@@H](CCC(=O)O)C(=O)N[C@@H](Cc1c[nH]c2ccccc12)C(=O)N[C@@H](CC(C)C)C(=O)N[C@@H](CC(C)C)C(=O)N[C@@H](C)C(=O)N[C@@H](CCC(N)=O)C(=O)NCC(=O)N1CCC[C@H]1C(=O)N[C@@H](CO)C(=O)N[C@@H](CO)C(=O)NCC(=O)N[C@@H](C)C(=O)N1CCC[C@H]1C(=O)N1CCC[C@H]1C(=O)N1CCC[C@H]1C(=O)N[C@@H](CO)C(N)=O)[C@@H](C)CC` [Compound 35] (H-Y[Aib]EGTFISDYSK([AEEA-AEEA-γGlu-C20 diacid])ELDKIAQRAFIEWLLAQGPSSGAPPPS-NH2), the bioavailability in series [2] came out at 73%. Besides, the half-life in series [2] (setting [6]) and in series [2] (setting [7]) was 14.5 h each time. Moreover, the Tmax in series [2] (sc) worked out at 4 h. Further, the half-maximal effective concentration (EC50) is 0.008 nM in series [3], 0.011 nM in series [4] and over 3 nM in series [5].
In turn, `CC[C@H](C)[C@H](NC(=O)[C@H](Cc1ccccc1)NC(=O)[C@H](C)NC(=O)[C@H](CCC(N)=O)NC(=O)[C@H](C)NC(=O)[C@H](C)NC(=O)[C@H](CCCCNC(=O)COCCOCCNC(=O)COCCOCCNC(=O)CN1CCN(C(=O)CCCCCCCCCCCCCCCCCCC(=O)O)CC1)NC(=O)[C@H](CCCCN)NC(=O)[C@H](CC(=O)O)NC(=O)[C@H](CC(C)C)NC(=O)[C@H](CCC(=O)O)NC(=O)[C@@H](NC(=O)[C@H](CO)NC(=O)[C@H](Cc1ccc(O)cc1)NC(=O)[C@H](CC(=O)O)NC(=O)[C@H](CO)NC(=O)[C@@H](NC(=O)[C@H](Cc1ccccc1)NC(=O)[C@@H](NC(=O)CNC(=O)[C@H](CCC(=O)O)NC(=O)C(C)(C)NC(=O)[C@@H](N)Cc1ccc(O)cc1)[C@@H](C)O)[C@@H](C)CC)[C@@H](C)CC)C(=O)N[C@@H](CCC(=O)O)C(=O)N[C@@H](Cc1c[nH]c2ccccc12)C(=O)N[C@@H](CC(C)C)C(=O)N[C@@H](CC(C)C)C(=O)N[C@@H](C)C(=O)N[C@@H](CCC(N)=O)C(=O)NCC(=O)N1CCC[C@H]1C(=O)N[C@@H](CO)C(=O)N[C@@H](CO)C(=O)NCC(=O)N[C@@H](C)C(=O)N1CCC[C@H]1C(=O)N1CCC[C@H]1C(=O)N1CCC[C@H]1C(=O)N[C@@H](CO)C(N)=O` [Compound 41] displayed a bioavailability in series [2] of 70%. Also, the half-life was 17.6 h in series [2] (setting [6]) and 16.5 h in series [2] (setting [7]). For the same molecule, the Tmax in series [2] (sc) came out at 8 h. Moreover, the EC50 in series [3] was 0.014 nM; in series [4] it was 0.01 nM; in series [5], over 10 nM.
